# Patent US10154957B2, “Microneedle device having a peptide therapeutic agent and an amino acid and methods of making and using the same” (3M INNOVATIVE PROPERTIES COMPANY, priority 2011, dated 2018)
# Assay: Percent purity of PTHrP analogue (20 mg/mL formulations) in coating on flood-coated arrays stored at 40° C./96% RH (HPLC)
# Type: physicochemical
# Conditions: peptide 20 mg/mL in PBS
# Description: The protein or polypeptide content in the formulation coated on the microneedle arrays was determined using an Agilent 1100 HPLC system (Agilent Technologies, Wilmington, Del.) equipped with a binary pump, well-plated thermostated autosampler, thermostated column compartment, and a diode array UV detector. A Zorbax 300SB-C8 column (Agilent Technologies, Wilmington, Del.) having a 5 μm particle size and 2.1×150 mm inner diameter was used for the separations. The column was maintained at 50° C. The mobile phase consisted of two eluents. Eluent A was 0.1% TFA (trifluoroacetic acid) in water and eluent B was 0.1% TFA in acetonitrile (Spectrum Chemical, New Brunswick, N.J.). A linear gradient from 80/20 to 50/50 (A/B) was applied over 30 minutes. The flow rate was 0.4 mL/minute and the UV detection wavelength was set at 214 nm. The total run time was 34 minutes and the sample injection volume was 15 μL.
# A sample formulation containing 20 mg/mL of [Glu^22,25,Leu^23,28,31,Aib^29,Lys^26,30]hPTHrP(1-34)NH2 and 20 mg/mL of L-histidine monohydrochloride (His-HCl) in PBS was prepared. A control formulation was also prepared containing 20 mg/mL of [Glu^22,25,Leu^23,28,31,Aib^29,Lys^26,30]hPTHrP(1-34)NH2 in PBS. […] Microneedle arrays were coated with either the sample or the control formulation. The coating was applied by dropwise addition of 50 μL of the formulation to the portion of the array defined by the octagon shaped pattern of microneedles. The flood coated arrays (both sample and control formulation coated) were dried in an oven at 35° C. for 2 hours followed by 30° C. for 15 hours.
# After drying, the coated arrays were placed in a storage chamber that was maintained at 40° C. and 96% relative humidity (RH). The [Glu^22,25,Leu^23,28,31,Aib^29,Lys^26,30]hPTHrP(1-34)NH2 content of the coated arrays was determined following storage in the chamber for 1, 3, and 7 days. The initial [Glu^22,25,Leu^23,28,31,Aib^29,Lys^26,30]hPTHrP(1-34)NH2 content was also determined using freshly coated arrays (both sample and control formulation coated). The arrays used to determine initial content were stored in a refrigerator at about 4° C. and analyzed within one day of being prepared. At the designated time point, an array was taken from the chamber and washed with 0.1 N acetic acid (20 mL) to remove the formulation from the array. The resulting wash solution was analyzed for [Glu^22,25,Leu^23,28,31,Aib^29,Lys^26,30]hPTHrP(1-34)NH2 content using the HPLC method described above. The results were quantified against an external standard of [Glu^22,25,Leu^23,28,31,Aib^29,Lys^26,30]hPTHrP(1-34)NH2. At each time point, the percent purity of [Glu^22,25,Leu^23,28,31,Aib^29,Lys^26,30]hPTHrP(1-34)NH2 in the coating was determined by measuring the peak area for [Glu^22,25,Leu^23,28,31,Aib^29,Lys^26,30]hPTHrP(1-34)NH2 in the selected coating and dividing it by the total peak area measured for all [Glu^22,25,Leu^23,28,31,Aib^29,Lys^26,30]hPTHrP(1-34)NH2 related peaks.
# The same procedure as described in Example 9 was used with the exception that the sample formulation contained 20 mg/mL of L-arginine hydrochloride, instead of L-histidine monohydrochloride.
substance,measurement,setting,value
"[Glu^22,25,Leu^23,28,31,Aib^29,Lys^26,30]hPTHrP(1-34)NH2","Percent Purity of [Glu^22,25, Leu^23,28,31, Aib^29, Lys^26,30]hPTHrP(1-34)NH2","Amino Acid L-Arginine (Arg-HCl 20 mg/mL), Day 1 at 40° C./96% RH",88.4%
same,"Percent Purity of [Glu^22,25, Leu^23,28,31, Aib^29, Lys^26,30]hPTHrP(1-34)NH2","Amino Acid L-Arginine (Arg-HCl 20 mg/mL), Day 3 at 40° C./96% RH",76.1%
same,"Percent Purity of [Glu^22,25, Leu^23,28,31, Aib^29, Lys^26,30]hPTHrP(1-34)NH2","Amino Acid L-Arginine (Arg-HCl 20 mg/mL), Day 7 at 40° C./96% RH",46.4%
same,"Percent Purity of [Glu^22,25, Leu^23,28,31, Aib^29, Lys^26,30]hPTHrP(1-34)NH2","Amino Acid L-Arginine (Arg-HCl 20 mg/mL), Initial",99.0%
same,"Percent Purity of [Glu^22,25, Leu^23,28,31, Aib^29, Lys^26,30]hPTHrP(1-34)NH2","Amino Acid L-Histidine (His-HCl 20 mg/mL), Day 1 at 40° C./96% RH",99.3%
same,"Percent Purity of [Glu^22,25, Leu^23,28,31, Aib^29, Lys^26,30]hPTHrP(1-34)NH2","Amino Acid L-Histidine (His-HCl 20 mg/mL), Day 3 at 40° C./96% RH",98.9%
same,"Percent Purity of [Glu^22,25, Leu^23,28,31, Aib^29, Lys^26,30]hPTHrP(1-34)NH2","Amino Acid L-Histidine (His-HCl 20 mg/mL), Day 7 at 40° C./96% RH",97.9%
same,"Percent Purity of [Glu^22,25, Leu^23,28,31, Aib^29, Lys^26,30]hPTHrP(1-34)NH2","Amino Acid L-Histidine (His-HCl 20 mg/mL), Initial",99.4%
same,"Percent Purity of [Glu^22,25, Leu^23,28,31, Aib^29, Lys^26,30]hPTHrP(1-34)NH2","Amino Acid None (control), Day 1 at 40° C./96% RH",85.6%
same,"Percent Purity of [Glu^22,25, Leu^23,28,31, Aib^29, Lys^26,30]hPTHrP(1-34)NH2","Amino Acid None (control), Day 3 at 40° C./96% RH",53.1%
same,"Percent Purity of [Glu^22,25, Leu^23,28,31, Aib^29, Lys^26,30]hPTHrP(1-34)NH2","Amino Acid None (control), Day 7 at 40° C./96% RH",21.1%
same,"Percent Purity of [Glu^22,25, Leu^23,28,31, Aib^29, Lys^26,30]hPTHrP(1-34)NH2","Amino Acid None (control), Initial",98.9%
